{"source": "patent US20260216177A1", "about": "“CO-DRUG, CO-ADMINISTRATION, AND SEQUENTIAL ADMINISTRATION OF SELECTIVE TTR LIGAND AND C20-D3-RETINOL FOR ELIMINATION OF MECHANISM-BASED OCULAR ADVERSE EFFECTS IN TREATING MACULAR DEGENERATION AND TTR AMYLOIDOSIS” (The Trustees of Columbia University in the City of New York, priority 2023, published 2026)", "key": {"[1]": {"biological_target": "RBP4 (Homo sapiens, UniProt P02753)", "details": "cited from earlier work"}, "[2]": {"system": "rhodopsin", "test": "Rhodopsin measured spectrophotometrically in retinal extracts of treated Balb/c mice", "type": "in vivo", "details": "Balb/c (wild-type) mice, 25 mg/kg daily oral, 10 days", "procedure": "Thus, ACPHS-14 was used as a representative “first component” of the present disclosure in order to assess the feasibility of using β-carotene as the “second component” in the co-drug strategy. Accordingly, an experiment was conducted to determine whether partial reduction in functional rhodopsin (opsin with conjugated 11-cis-retinal) induced by oral ACPHS-14 in mice can be compensated by co-administration with β-carotene. An experiment was also conducted to determine whether co-administration of ACPHS-14 and β-carotene can restore retinal function as can be assessed by electroretinography (ERG). It was previously reported that ACPHS-14 can induce a pronounced reduction in serum RBP4 along with stabilization of TTR tetramers (Cioffi, C. L. et al. 2021).\nThe experiments were conducted in Balb/c mice. Three groups of mice were used: control untreated mice; mice treated with ACPHS-14; and mice treated with the ACPHS-14 plus β-carotene combination. […] Following compound dosing, retinal function in the mice was assessed by ERG as previously described (Racz, B. et al. 2018). […] Rhodopsin was measured spectrophotometrically in the retinal extracts using a previously published protocol (Racz, B. et al. 2018)."}, "[3]": {"system": "Balb/c mice", "test": "Retinal function by electroretinography (scotopic ERG a-wave) in treated Balb/c mice", "type": "in vivo", "details": "1.89 log cd*s/m2 light intensity; 25 mg/kg daily oral, 10 days"}, "[4]": {"system": "serum RBP4", "details": "mice; cited from earlier work"}, "[5]": {"details": "in vivo; cited from earlier work"}, "[6]": {"system": "Abca4-/- mouse model", "details": "cited from earlier work"}, "[7]": {"biological_target": "TTR tetramers (Homo sapiens, UniProt P02766)", "details": "cited from earlier work"}, "[8]": {"details": "in vitro; cited from earlier work"}, "[9]": {"details": "cited from earlier work"}, "[10]": {"details": "cited from earlier work", "remark": "listed apart in the source"}, "[11]": {"details": "ATTR-CM patients, Phase III; cited from earlier work"}, "[12]": {"details": "Phase 2, dry AMD patients; no ocular AEs with placebo; cited from earlier work"}, "[13]": {"details": "long-term use in cancer patients; cited from earlier work"}, "[14]": {"details": "patients treated for TTR amyloidosis; cited from earlier work"}}, "note": "“Also recorded” adds a separate entry of the source.", "data": [{"compound": "Cc1n[nH]c(C)c1N1CCN(c2cc(C(=O)O)ccc2F)CC1", "note": "[ACPHS-14]", "values": [{"measurement": "competition with retinol binding to RBP4", "setting": "[1]", "result": "does not compete with retinol binding to RBP4"}, {"measurement": "rhodopsin in comparison to untreated mice", "setting": "[2]", "result": "significantly reduced rhodopsin"}, {"measurement": "reduction of scotopic ERG a-wave amplitude in comparison to untreated mice", "setting": "[3]", "result": 45, "unit": "%"}, {"measurement": "RBP4-lowering efficacy", "setting": "[4]", "result": "excellent RBP4-lowering efficacy; also recorded: significantly decreasing the concentration of serum RBP4"}, {"measurement": "oral bioavailability", "setting": "[5]", "result": "orally bioavailable"}, {"measurement": "bisretinoid reduction", "setting": "[6]; Abca4-/- mouse model", "result": "excellent bisretinoid reduction"}, {"measurement": "stabilization of TTR tetramers", "setting": "[7]", "result": "inducing stabilization of TTR tetramers"}]}, {"compound": "[2H]C([2H])([2H])C(/C=C/C=C(C)/C=C/C1=C(C)CCCC1(C)C)=C\\C=O", "note": "[C20-D3-retinaldehyde]", "values": [{"measurement": "rate of dimer formation relative to unlabeled retinaldehyde (times less rapidly)", "setting": "[8]", "result": 12, "unit": "times"}, {"measurement": "reduction of bisretinoid A2E formation", "setting": "[8]", "result": 7, "unit": "fold"}]}, {"compound": "[2H]C([2H])([2H])C(/C=C/C=C(C)/C=C/C1=C(C)CCCC1(C)C)=C\\COC(C)=O", "note": "[C20-D3-retinyl acetate]", "values": [{"measurement": "inhibition of bisretinoid synthesis and normalization of complement system dysregulation in the retina", "setting": "[6]; Abca4-/- mice, model of Stargardt disease (STGD1)", "result": "effective"}]}, {"compound": "CC(=O)N1CCc2c(C(=O)N3CCC(c4ccc(F)c(F)c4C(F)(F)F)CC3)n[nH]c2C1", "note": "[Tinlarebant]", "values": [{"measurement": "ocular adverse effects in a subset of patients", "setting": "[9]", "result": "asymptomatic delayed dark adaptation (measured only instrumentally) or symptomatic xanthopsia"}]}, {"compound": "O=C(O)c1ccc2nc(-c3cc(Cl)cc(Cl)c3)oc2c1", "note": "[compound 3, tafamidis]", "values": [{"measurement": "patients who do not respond", "setting": "[10]", "result": "Approximately 30%"}, {"measurement": "reduction of the rate of cardiovascular-related hospitalizations compared to placebo controls", "setting": "[11]", "result": 32, "unit": "%"}, {"measurement": "reduction of the risk of death compared to placebo controls", "setting": "[11]", "result": 30, "unit": "%"}]}, {"compound": "CC1=C(/C=C/C(C)=C/C=C/C(C)=C/C(=O)Nc2ccc(O)cc2)C(C)(C)CCC1", "note": "[fenretinide]", "values": [{"measurement": "drug-treated patients with reversible reduction in dark adaptation", "setting": "[12]", "result": "~ 10%"}, {"measurement": "yearly prevalence of transient and reversible ocular AEs such as diminished dark adaptation", "setting": "[13]", "result": "5.8-6.7%"}]}, {"compound": "patisiran", "values": [{"measurement": "ocular symptoms in clinical use", "setting": "[14]", "result": "symptoms of night blindness in a subset of patients"}]}]}
